Where two headings read alike, the source gives them in different places.
Legend:
[1] = biological target: T1, AKT1 WT (Homo sapiens, UniProt P31749); assay: Live cell AKT1 WT target engagement by NanoBRET competitive probe displacement in HEK293 cells; type: binding; settings: 2 h at 37° C., read-out: AKT1 WT IC50
T1 construct: expressed in transfected cells; host or cells: HEK293

[2] = biological target: T2, AKT2 (Homo sapiens, UniProt P31751); assay: Live cell AKT2 target engagement by NanoBRET competitive probe displacement in HEK293 cells; type: binding; settings: 2 h at 37° C., read-out: AKT2 IC50
T2 construct: expressed in transfected cells; host or cells: HEK293

[3] = NanoBRET live cell target engagement, HEK293 cells
[4] = NanoBRET competitive probe displacement, live HEK293 cells

T2 sequence (P31751 whole entry): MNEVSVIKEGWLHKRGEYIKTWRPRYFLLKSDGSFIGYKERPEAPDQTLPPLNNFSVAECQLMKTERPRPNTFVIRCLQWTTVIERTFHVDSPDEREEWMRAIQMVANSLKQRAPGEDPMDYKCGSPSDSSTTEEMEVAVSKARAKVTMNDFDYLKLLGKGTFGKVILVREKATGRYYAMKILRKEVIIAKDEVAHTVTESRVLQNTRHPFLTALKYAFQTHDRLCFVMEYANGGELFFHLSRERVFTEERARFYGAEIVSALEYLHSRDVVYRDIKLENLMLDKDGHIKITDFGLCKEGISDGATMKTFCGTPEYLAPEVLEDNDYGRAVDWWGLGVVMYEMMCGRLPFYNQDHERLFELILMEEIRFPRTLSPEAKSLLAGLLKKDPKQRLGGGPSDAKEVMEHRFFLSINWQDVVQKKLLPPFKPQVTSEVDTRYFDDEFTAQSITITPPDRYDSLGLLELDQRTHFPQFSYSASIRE
T1 sequence (P31749 whole entry): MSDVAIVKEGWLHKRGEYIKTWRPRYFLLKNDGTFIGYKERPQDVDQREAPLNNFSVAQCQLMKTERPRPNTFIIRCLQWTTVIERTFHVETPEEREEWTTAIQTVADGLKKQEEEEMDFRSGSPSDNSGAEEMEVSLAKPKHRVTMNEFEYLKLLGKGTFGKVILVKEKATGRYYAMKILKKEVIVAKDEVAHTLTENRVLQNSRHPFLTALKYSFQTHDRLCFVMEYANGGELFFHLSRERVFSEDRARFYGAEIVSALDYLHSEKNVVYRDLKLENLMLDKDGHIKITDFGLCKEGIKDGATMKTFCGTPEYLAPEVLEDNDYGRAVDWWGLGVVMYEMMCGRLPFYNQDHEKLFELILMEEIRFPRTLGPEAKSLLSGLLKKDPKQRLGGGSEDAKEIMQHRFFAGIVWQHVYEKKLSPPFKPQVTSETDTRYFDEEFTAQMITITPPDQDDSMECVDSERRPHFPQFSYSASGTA

In the case of `Cc1ncc(C(=O)N[C@H]2CCc3cc(-n4c(-c5cccnc5N)nc5ccc(-n6cccn6)nc54)ccc32)c(C(F)F)n1` [Compound 151, (S)—N-(5-(2-(2-aminopyridin-3-yl)-5-(1H-pyrazol-1-yl)-3H-imidazo[4,5-b]pyridin-3-yl)-2,3-dihydro-1H-inden-1-yl)-4-(difluoromethyl)-2-methylpyrimidine-5-carboxamide], the IC50 [1, 3] is reported as 22.8 nM and the IC50 [2, 3] is reported as 366 nM.
Compound `Nc1ncccc1-c1nc2ccc(-n3cccn3)nc2n1-c1ccc2c(c1)CC[C@@H]2NC(=O)c1ccnc(OC2COC2)c1` [Compound 164, (S)—N-(5-(2-(2-aminopyridin-3-yl)-5-(1H-pyrazol-1-yl)-3H-imidazo[4,5-b]pyridin-3-yl)-2,3-dihydro-1H-inden-1-yl)-2-(oxetan-3-yloxy)isonicotinamide] has an IC50 [1, 3] of 15.3 nM and an IC50 [2, 3] of 180 nM.
With `COC1CCN(c2ccn(-c3ccc4nc(-c5cccnc5N)n(-c5ccc6c(c5)CC(F)[C@@H]6NC5CCN(C(=O)C6CC6)CC5)c4n3)n2)CC1` (stereo partly drawn) [Compound 546] the IC50 [1, 4] was 9.86 nM and the IC50 [2, 4] was 221 nM.
`Nc1ncccc1-c1nc2ccc(C#CC3CCCC3)nc2n1-c1ccc2c(c1)CC[C@@H]2NC(=O)c1ccc(C(F)F)nc1` [Compound 460] gave an IC50 [1, 4] of 33.6 nM and an IC50 [2, 4] of 6180 nM.
In the case of `Nc1ncccc1-c1nc2ccc(C#C[C@H]3CCO3)nc2n1-c1ccc2c(c1)CC[C@@H]2NC(=O)c1ccc(C(F)F)nc1` [Compound 453], the IC50 [1, 4] is reported as 28 nM and the IC50 [2, 4] is reported as 3770 nM.
With `Nc1ncccc1-c1nc2ccc(-n3cccn3)nc2n1-c1ccc2c(c1)CC[C@@H]2N1Cc2ccncc2C1` [Compound 494] the IC50 [1, 4] was 199 nM and the IC50 [2, 4] was 6860 nM.
`Nc1ncccc1-c1nc2ccc(-n3cccn3)nc2n1-c1ccc2c(c1)CC[C@@H]2NC1CCN(C(=O)[C@H]2CC2(F)F)CC1` [Compound 476] was tested, and the IC50 [1, 4] was 209 nM and the IC50 [2, 4] was > 10000 nM.
`CCc1ncccc1C(=O)N[C@H]1CCc2cc(-n3c(-c4cccnc4N)nc4ccc(-n5cccn5)nc43)ccc21` [Compound 86] was tested, and the IC50 [1, 3] was 46.8 nM and the IC50 [2, 3] was 427 nM.
In the case of `CS(=O)(=O)Nc1ccc(C(=O)N[C@H]2CCc3cc(-n4c(-c5cccnc5N)nc5ccc(-n6cccn6)nc54)ccc32)cn1` [Compound 231], the IC50 [1, 3] is reported as 504 nM and the IC50 [2, 3] is reported as 3870 nM.
With `Cc1ncc(F)cc1C(=O)N[C@H]1CCc2cc(-n3c(-c4cccnc4N)nc4ccc(-n5cccn5)nc43)ccc21` [Compound 159] the IC50 [1, 3] was 4.65 nM and the IC50 [2, 3] was 22.1 nM.
`Cc1nnc(C)n1[C@H]1CCc2cc(-n3c(-c4cccnc4N)nc4ccc(-n5cccn5)nc43)ccc21` [Compound 272, (S)-3-(3-(1-(3,5-dimethyl-4H-1,2,4-triazol-4-yl)-2,3-dihydro-1H-inden-5-yl)-5-(1H-pyrazol-1-yl)-3H-imidazo[4,5-b]pyridin-2-yl)pyridin-2-amine] was tested, and the IC50 [1, 3] was 38.6 nM and the IC50 [2, 3] was 604 nM.
`Cn1nc(C(=O)N[C@H]2CCc3cc(-n4c(-c5cccnc5N)nc5ccc(-n6cccn6)nc54)ccc32)cc1C(F)F` [Compound 266] was tested, and the IC50 [1, 3] was 18.3 nM and the IC50 [2, 3] was 468 nM.
With `Nc1ncccc1-c1nc2ccc(-n3cccn3)nc2n1-c1ccc2c(c1)CC[C@@H]2NC(=O)c1ccc(Cl)cc1` [Compound 263] the IC50 [1, 3] was 9.18 nM and the IC50 [2, 3] was 120 nM.
Compound `Nc1ncccc1-c1nc2ccc(-n3ccc(N4CCOCC4)n3)nc2n1-c1ccc2c(c1)CC(F)[C@@H]2NC1CCN(C(=O)C2CC2)CC1` (stereo partly drawn) [Compound 544] has an IC50 [1, 4] of 6.24 nM and an IC50 [2, 4] of 130 nM.
For `Nc1ncccc1-c1nc2ccc(-n3ccc(C4CCOCC4)n3)nc2n1-c1ccc2c(c1)CC[C@@H]2NC1CCN(C(=O)C2CC2)CC1` [Compound 487], the IC50 [1, 4] was 42.8 nM and the IC50 [2, 4] was > 10000 nM.
`Cc1ncc(C(=O)N[C@H]2CCc3cc(-n4c(-c5cccnc5N)nc5ccc(-n6nccn6)nc54)ccc32)s1` [Compound 492] gave an IC50 [1, 4] of 24.1 nM and an IC50 [2, 4] of 2120 nM.
With `Nc1ncccc1-c1nc2ccc(-n3cccn3)nc2n1-c1ccc2c(c1)CC[C@@H]2NC(=O)c1ccc2[nH]c(=O)sc2c1` [Compound 233] the IC50 [1, 3] was 12.3 nM and the IC50 [2, 3] was 24.2 nM.
`CNS(=O)(=O)c1cccc(C(=O)N[C@H]2CCc3cc(-n4c(-c5cccnc5N)nc5ccc(-n6cccn6)nc54)ccc32)c1` [Compound 239] gave an IC50 [1, 3] of 117 nM and an IC50 [2, 3] of 1090 nM.
`Nc1ncccc1-c1nc2ccc(-n3cccn3)nc2n1-c1ccc2c(c1)CC[C@@H]2NCc1ccnc(OC(F)(F)F)c1` [Compound 305] was tested, and the IC50 [1, 3] was 32.1 nM and the IC50 [2, 3] was 1160 nM.
Work on `Nc1ncccc1-c1nc2ccc(-n3cccn3)nc2n1-c1ccc2c(c1)CC[C@@H]2NC(=O)c1cccnc1OC(F)(F)F` [Compound 78] yielded an IC50 [1, 3] of 106 nM and an IC50 [2, 3] of 1910 nM.
For `Fc1ccccc1-c1nc2ccc(-n3cccn3)nc2n1-c1ccc2c(c1)CC[C@@H]2n1cnnc1` [Compound 529], the IC50 [1, 4] was 8.2 nM and the IC50 [2, 4] was 621 nM.
`Cc1nc(C(F)F)sc1C(=O)N[C@H]1CCc2cc(-n3c(-c4cccnc4N)nc4ccc(-n5nccn5)nc43)ccc21` [Compound 541] gave an IC50 [1, 4] of 5.46 nM and an IC50 [2, 4] of 556 nM.
For `Cc1ccc(C(=O)N[C@H]2CCc3cc(-n4c(-c5cccnc5N)nc5ccc(-n6ccc(OC(F)F)n6)nc54)ccc32)cn1` [Compound 535], the IC50 [1, 4] was 6.42 nM and the IC50 [2, 4] was 42.1 nM.
Compound `Nc1ncccc1-c1nc2ccc(-n3ccc(OC4COC4)n3)nc2n1-c1ccc2c(c1)CC[C@@H]2NC1CCN(C(=O)C2CC2)CC1` [Compound 567] has an IC50 [1, 4] of 11.3 nM and an IC50 [2, 4] of 455 nM.
With `Nc1ncccc1-c1nc2ccc(-n3nccn3)nc2n1-c1ccc2c(c1)CC(F)[C@@H]2NC1CCN(C(=O)C2CC2)CC1` (stereo partly drawn) [Compound 532] the IC50 [1, 4] was 177 nM and the IC50 [2, 4] was > 10000 nM.
`COc1nccc(C(=O)N[C@H]2CCc3cc(-n4c(-c5cccnc5N)nc5ccc(-n6nccn6)nc54)ccc32)c1C` [Compound 380] showed an IC50 [1, 3] of 13.9 nM and an IC50 [2, 3] of 312 nM.
`Nc1ncccc1-c1nc2ccc(-n3cccn3)nc2n1-c1ccc2c(c1)CC[C@@H]2NC(=O)c1cccnc1C#Cc1ccccc1` [Compound 210] showed an IC50 [1, 3] of 95.8 nM and an IC50 [2, 3] of 596 nM.
For `Nc1ncccc1-c1nc2ccc(-n3cccn3)nc2n1-c1ccc2c(c1)CC[C@@H]2NC1CCC1` [Compound 88, (S)-3-(3-(1-(cyclobutylamino)-2,3-dihydro-1H-inden-5-yl)-5-(1H-pyrazol-1-yl)-3H-imidazo[4,5-b]pyridin-2-yl)pyridin-2-amine], the IC50 [1, 3] was 155 nM and the IC50 [2, 3] was 1810 nM.
Work on `Nc1ncccc1-c1nc2ccc(C3CC3)nc2n1-c1ccc2c(c1)CC[C@@H]2NC(=O)c1ccc(C(F)F)nc1` [Compound 130] yielded an IC50 [1, 3] of 46.4 nM and an IC50 [2, 3] of 2290 nM.
With `Cc1ncccc1C(=O)N[C@H]1CCc2cc(-n3c(-c4cccnc4N)nc4c(C#N)cc(-n5cccn5)nc43)ccc21` [Compound 125] the IC50 [1, 3] was 13.3 nM and the IC50 [2, 3] was 201 nM.
In the case of `Cc1cnc(-c2ccc3nc(-c4cccnc4N)n(-c4ccc5c(c4)CC[C@@H]5n4ccnn4)c3n2)s1` [Compound 303], the IC50 [1, 3] is reported as 45.6 nM and the IC50 [2, 3] is reported as 1720 nM.
In the case of `Nc1ncccc1-c1nc2ccc(-n3cccn3)nc2n1-c1ccc2c(c1)CC[C@@H]2N1CCCC1` [Compound 330], the IC50 [1, 3] is reported as 55.1 nM and the IC50 [2, 3] is reported as 1190 nM.
In the case of `Nc1ncccc1-c1nc2ccc(-n3cccn3)nc2n1-c1ccc2c(c1)CC[C@@H]2NC1CC2(C1)CN(c1ccccn1)C2` [Compound 448], the IC50 [1, 4] is reported as 47.8 nM and the IC50 [2, 4] is reported as 1760 nM.
Compound `COc1ncc(C(=O)N[C@H]2CCc3cc(-n4c(-c5cccnc5N)nc5ccc(-n6cccn6)nc54)ccc32)cc1F` [Compound 162] has an IC50 [1, 3] of 9.12 nM and an IC50 [2, 3] of 37.8 nM.
`Nc1ncccc1-c1nc2ccc(-n3cccn3)nc2n1-c1ccc2c(c1)CC[C@@H]2NC1CCc2cc(O)ccc21` (single isomer, unassigned) [Compound 499] showed an IC50 [1, 4] of 45.6 nM and an IC50 [2, 4] of 897 nM.
With `Nc1ncccc1-c1nc2ccc(-n3ccc(OC4CCOCC4)n3)nc2n1-c1ccc2c(c1)CC[C@@H]2NC1CCN(C(=O)C2CC2)CC1` [Compound 517] the IC50 [1, 4] was 31.6 nM and the IC50 [2, 4] was 973 nM.
Work on `Nc1ncccc1-c1nc2ccc(-n3cccn3)nc2n1-c1ccc2c(c1)CC[C@@H]2NC1CCN(C(=O)C2CC2(F)F)CC1` (stereo partly drawn) [Compound 433] yielded an IC50 [1, 4] of 190 nM and an IC50 [2, 4] of 3530 nM.
In the case of `Nc1ncccc1-c1nc2ccc(-n3cccn3)nc2n1-c1ccc2c(c1)CC[C@@H]2N(C1CC1)C1CCN(C(=O)C2CC2)CC1` [Compound 557], the IC50 [1, 4] is reported as 15.9 nM and the IC50 [2, 4] is reported as 1760 nM.
Compound `Nc1ncccc1-c1nc2ccc(-n3cccn3)nc2n1-c1ccc2c(c1)CC[C@@H]2NC(=O)c1ccc2[nH]c(=O)oc2c1` [Compound 191] has an IC50 [1, 3] of 9.23 nM and an IC50 [2, 3] of 78.6 nM.
Work on `Cc1ncccc1OCC1CCc2cc(-n3c(-c4cccnc4N)nc4ccc(-n5cccn5)nc43)ccc21` (single isomer, unassigned) [Compound 253, (*)-3-(3-(1-(((2-methylpyridin-3-yl)oxy)methyl)-2,3-dihydro-1H-inden-5-yl)-5-(1H-pyrazol-1-yl)-3H-imidazo[4,5-b]pyridin-2-yl)pyridin-2-amine] yielded an IC50 [1, 3] of 65.8 nM and an IC50 [2, 3] of 2120 nM.
`CCc1cc(C(=O)N[C@H]2CCc3cc(-n4c(-c5cccnc5N)nc5ccc(-n6cccn6)nc54)ccc32)ccn1` [Compound 204] was tested, and the IC50 [1, 3] was 9.42 nM and the IC50 [2, 3] was 53.1 nM.
With `Nc1ncccc1-c1nc2ccc(-n3cccn3)nc2n1-c1ccc2c(c1)CC[C@@H]2n1cnnc1` [Compound 248, (S)-3-(3-(1-(4H-1,2,4-triazol-4-yl)-2,3-dihydro-1H-inden-5-yl)-5-(1H-pyrazol-1-yl)-3H-imidazo[4,5-b]pyridin-2-yl)pyridin-2-amine] the IC50 [1, 3] was 20.2 nM and the IC50 [2, 3] was 107 nM.
Compound `Nc1ncccc1-c1nc2ccc(-n3cccn3)nc2n1-c1ccc2c(c1)CC[C@@H]2NC(=O)c1cnc2[nH]ncc2c1` [Compound 192] has an IC50 [1, 3] of 9.54 nM and an IC50 [2, 3] of 86.4 nM.
`COc1ccn(-c2ccc3nc(-c4cccnc4N)n(-c4ccc5c(c4)CC[C@@H]5NC4[C@@H]5COC[C@H]4CN(C(=O)C4CC4)C5)c3n2)n1` (single isomer, unassigned) [Compound 523] was tested, and the IC50 [1, 4] was 48.4 nM and the IC50 [2, 4] was 1740 nM.
Compound `Nc1ncccc1-c1nc2ccc(-c3ccn(C(F)F)n3)nc2n1-c1ccc2c(c1)CC[C@@H]2NC(=O)c1ccc(C(F)(F)F)nc1` [Compound 421] has an IC50 [1, 4] of 3.52 nM and an IC50 [2, 4] of 37.9 nM.

From patent US12624034B2, “Non-covalent modifiers of AKT1 and uses thereof” (Terremoto Biosciences, Inc., priority 2023, dated 2026)
